US4340602A, “Compositions inhibiting estrogen sulfotransferase activity” (Wayne State University, priority 1978, dated 1982)
Like-named read-outs stand apart in the source and are kept apart here.

Assays:
[1] = biological target: T1, Bovine Adrenal Estrogen Sulfotransferase (Bos taurus, UniProt P19217); assay: Inhibition of bovine adrenal estrogen sulfotransferase (estrone sulfurylation); format: biochemical
T1 construct: The enzyme was isolated from the bovine adrenals; from tissue; host or cells: bovine adrenals; purified by ammonium sulfate fractionation and chromatography on DEAE-cellulose or DEAE-Sephadex A-50
T1 sequence (P19217 1-295): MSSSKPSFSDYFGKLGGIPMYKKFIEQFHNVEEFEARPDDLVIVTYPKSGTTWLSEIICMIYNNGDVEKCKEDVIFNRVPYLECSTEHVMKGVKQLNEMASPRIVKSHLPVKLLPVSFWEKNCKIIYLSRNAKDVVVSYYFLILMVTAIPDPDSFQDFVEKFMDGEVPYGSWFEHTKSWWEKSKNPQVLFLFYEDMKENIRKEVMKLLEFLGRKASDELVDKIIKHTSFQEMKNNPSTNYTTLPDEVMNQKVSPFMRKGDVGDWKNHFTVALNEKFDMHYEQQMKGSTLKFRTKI
Experimental: Materials are evaluated for activity as estrogen sulfotransferase inhibitors by the method of Rozhin et al, Journal of Biological Chemistry, 252:7214-7220 (October 25, 1977), herein incorporated by reference.
Isolation of Estrogen Sulfotransferase (EC 2.8.2.4). The enzyme was isolated from the bovine adrenals and purified by ammonium sulfate fractionation and column chromatography on DEAE-cellulose or DEAE-SephadexA-50 [Rozhin et al (1974)].
Standard Enzyme Assay. The incubation mixtures contained the following in a total volume of 0.2 ml: 0.4 mM P-Ado-PS; 2 to 23 μM estrone (3-hydroxy-1,3,5(10)-estratriene-17-one), 5×10^5 dpm of [6,7-^3 H]estrone; 5 mM magnesium acetate; 0.19 M Tris/HCl buffer (pH 8.1 at 37°); 5 ug of the enzyme; and 25 μM dithiothreitol. After a 10-min incubation (in the presence of a constant amount of inhibitor and a variable amount of estrone), the boiled mixtures were supplemented with 5 μg of aqueous estrone sulfate. The remaining [^3 H]estrone was extracted three times with 0.3 ml of ethyl ether. The residual ether was removed and the volume adjusted to 0.5 ml with methanol. A sample (25 μl) was applied, together with 10 μg of methanolic estrone sulfate marker, to type SG chromatography media (Gelman Instrument Co., Ann Arbor, Mich.), and developed with chloroform/acetone/acetic acid (110:35:6). After drying the sheet, samples were visualized by spraying with methylene blue (25 mg in 100 ml of 0.05 N H2 SO4), punched out with a cork borer, and counted in 10 ml of dioxane counting liquid. A blank employing a boiled enzyme sample was incubated and the recorded counts were substracted from each determination. The total corrected counts, representing steroid sulfate ester, were converted to nanomoles utilizing the specific activity of [^3 H]estrone. An enzyme unit was defined as that quantity of enzyme which synthesized 1 nmol of estrone sulfate in 1 min under chosen conditions. […] When nonsubstrate steroids were used as the inhibitors, the procedure for the enzyme assay was as described earlier [Rozhin et al (1974)], utilizing 5 μg of enzyme, P-Ado-[^35 S]PS, and unlabeled estrone.
Data Processing. The initial velocity analysis was carried out keeping the concentration of P-Ado-PS at saturation level, varying the estrone concentration and keeping the concentration of the inhibitor at a fixed level. Preliminary plots of the data were made in the double reciprocal form (l/v versus l/[S]), and in the form of replots of slopes (and intercepts) versus inhibitor concentration. On the basis of these plots, the proper inhibition pattern was chosen for each experiment and the data points were fitted to the appropriate equation.
Linear competitive inhibition: [formula]
Hyperbolic competitive inhibition: [formula]
Slope-parabolic non-competitive inhibition: [formula]
All calculations were performed using Cleland's Fortran programs (Adv. Enzymol., 29:1-32). The programs gave the values of Km, Vmax, and inhibition constants.
Fractional Inhibition. From kinetic experiments, Ki was calculated as described above under "Data Processing" after making replots of slopes (and/or intercepts) versus inhibitor concentration. […] Substituting v and vi from the corresponding rate equations in the absence of (v=(Vmax [S])/(Km +[S])) and presence of a (competitive) inhibition (Equation 1), the following relationship for FI is obtained: [formula] After substituting [S], Km, and [I] (see above), the equation for the fractional (competitive) inhibition simplifies to: [formula] and the mathematical relationship between FI and Ki of competitive inhibitors is represented by the continuous curve in FIG. 2 in Rozhin et al., J. Biol. Chem., 252, 7214-7220, 1977. The dashed line represents the relationship between FI and the Ki of pure noncompetitive inhibition derived mathematically in an analogous manner and expressed as [formula] Since [I]=22.2 μM, [formula]

[2] = test system: 17β-estradiol receptor (rabbit uterus 100,000×g supernatant); assay: Competitive binding: effect on binding of 17β-estradiol (E2) by rabbit uterine tissue; settings: 2000-fold excess; 0.7 nM tritiated 17β-estradiol; 2 h on ice
Experimental: Competitive binding experiments were carried out utilizing the 100,000×g supernatant from rabbit uterus maintained at 4° C. Unlabeled competitive estrogens were added to the incubation 10 min. before tritiated 17β-estradiol. Incubations were carried out in quadruplicate for 2 h on ice. [2,4,6,7-^3 H]-17-Estradiol was added to 0.5 ml of supernatant (0.69 mg protein) at a concentration of 0.7 nM. Radioactivity in the bound 17β-estradiol was assayed by the dextran-coated charcoal (1:10) procedure.

[3] = test system: estrogen sulfotransferase; assay: Blocking of estrogen sulfotransferase activity by 3-methoxy-4-nitroestrone (Example 4); format: biochemical; settings: molar ratio of 10:1
[4] = inhibitors 1 and 5 to 8; calculated from fractional inhibition; read-out: Ki (Table II), calculated from Equation 4 (competitive inhibition)
[5] = pH 8.1; read-out: Fractional Inhibition (Table II)
[6] = pH 8.1, read-out: Fractional Inhibition (Table I)
[7] = inhibitors 2 to 4 and 9 to 12; from kinetic experiments; read-out: Ki (Table II), not among those calculated
[8] = inhibitors 2, 7 and 8; competitive inhibition equation; read-out: Ki (Table I), calculated from fractional inhibition (competitive inhibition)
[9] = pH 8.1; read-out: Fractional Inhibition (Table I)
[10] = pH 8.1, read-out: Fractional Inhibition (Table II)
[11] = inhibitors 3 to 6, 12 and 16; from kinetic experiments; read-out: Ki (Table I), determined experimentally

C[C@]12CC[C@@H]3c4cc(Br)c(O)c(Br)c4CC[C@H]3[C@@H]1CC[C@@H]2O [2,4-Dibromo-1,3,5(10)estratriene-3,17β-diol]
Ki [1, 4]: 0.11 µM | inhibition at 22.2 µM [1, 5]: 99%

C[C@]12CC[C@H](O)C[C@@H]1CC[C@@H]1[C@@H]2CC[C@]2(C)[C@@H](O)CC[C@@H]12 [5α-Androstane-3β,17β-diol]
Ki [1]: 47 µM | inhibition at 22.2 µM [1, 6]: 32%

COc1ccc2c(c1[N+](=O)[O-])CC[C@@H]1[C@@H]2CC[C@]2(C)C(=O)CC[C@@H]12 [3-Methoxy-4-NO2-1,3,5(10)-estratriene-17-one]
Ki [1, 4]: 4.3 µM | inhibition at 22.2 µM [1, 5]: 72% | blocking of binding of 17β-estradiol to its receptor [2]: not blocked | blocked activity of estrogen sulfotransferase [3]: > 90%

C[C@]12CC[C@@H]3c4ccc(O)c([N+](=O)[O-])c4CC[C@H]3[C@@H]1CC[C@@H]2O [4-Nitro-1,3,5(10)estratriene-3,17β-diol]
Ki [1, 7]: 0.15 µM | inhibition at 22.2 µM [1, 5]: 98%

CC(=O)Oc1ccc2c(c1)CC[C@@H]1[C@@H]2CC[C@]2(C)[C@@H](O)CC[C@@H]12 [1,3,5(10)Estratriene-3,17β-diol-3-acetate]
Ki [1, 8]: 17 µM | inhibition at 22.2 µM [1, 9]: 39%

C[C@]12CC[C@@H]3c4cc([N+](=O)[O-])c(O)cc4CC[C@H]3[C@@H]1CC[C@@H]2O [2-Nitro-1,3,5(10)estratriene-3,17β-diol]
Ki [1, 7]: 2.4 µM | inhibition at 22.2 µM [1, 5]: 80%

C[C@]12CC[C@@H]3c4ccc(O)cc4CC[C@H]3[C@@H]1C[C@@H](O)[C@@H]2O [1,3,5(10)Estratriene-3,16α,17β-triol]
Ki [1]: 8.2 µM | inhibition at 22.2 µM [1, 10]: 66%

C[C@]12CC[C@H](O)CC1=CC[C@@H]1[C@@H]2CC[C@]2(C)C(=O)CC[C@@H]12 [3β-Hydroxy-5-androstene-17-one]
Ki [1]: 170 µM | inhibition at 22.2 µM [1, 6]: 21%

C[C@]12CC[C@@H]3c4ccc(OC(=O)c5ccccc5)cc4CC[C@H]3[C@@H]1CC[C@@H]2O [1,3,5(10)Estratriene-3,17β-diol-3-benzoate]
Ki [1]: 90 µM | inhibition at 22.2 µM [1, 6]: 11%

C[C@]12CC[C@@H]3c4ccc(O)cc4C(=O)C[C@H]3[C@@H]1CC[C@@H]2O [3,17β-Dihydroxy-1,3,5(10)-estratriene-6-one]
Ki [1]: 5.5 µM | inhibition at 22.2 µM [1, 10]: 69%

C[C@]12CC[C@@H]3c4ccccc4CC[C@H]3[C@@H]1CC[C@@H]2O [1,3,5(10)Estratriene-17β-ol]
Ki [1, 8]: 16 µM | inhibition at 22.2 µM [1, 9]: 41%

C[C@@]12CCC[C@H]1[C@@H]1CC=C3C[C@@H](O)CC[C@]3(C)[C@H]1CC2 [5-Androstene-3β-ol]
Ki ([1]; inhibitors 10, 11 and 13 to 15; Equation 5 (noncompetitive); read-out: Ki (Table I), calculated from fractional inhibition (noncompetitive inhibition)): 50 µM | inhibition at 22.2 µM [1, 9]: 31%

C[C@]12CC[C@@H]3c4ccc(O)cc4CC[C@H]3[C@@H]1CCC2=O [3-Hydroxy-1,3,5(10)estratriene-17-one]
Ki [1]: 4.9 µM | inhibition at 22.2 µM [1, 9]: 65%

C[C@]12CCC(=O)C[C@H]1CC[C@@H]1[C@@H]2CC[C@]2(C)[C@@H](O)CC[C@@H]12 [17β-Hydroxy-5β-androstane-3-one]
Ki [1]: 74 µM | inhibition at 22.2 µM [1, 6]: 23%

C[C@@]12CCC[C@H]1[C@@H]1CCc3cc(O)ccc3[C@H]1CC2 [1,3,5(10)Estratriene-3-ol]
Ki [1, 11]: 3.5 µM | inhibition at 22.2 µM [1, 9]: 67%

C[C@@]12CCC[C@H]1[C@@H]1CCc3ccccc3[C@H]1CC2 [1,3,5(10)Estratriene]
inhibition at 22.2 µM [1, 9]: 0%

C[C@@]12CCC[C@H]1[C@@H]1CC=C3CCCC[C@]3(C)[C@H]1CC2 [5-Androstene]
inhibition at 22.2 µM [1, 9]: 0% | estrogen sulfotransferase inhibition, in words ([1]; summary statement): inactive

C[C@]12CC[C@@H]3c4cc(N)c(O)cc4CC[C@H]3[C@@H]1CC[C@@H]2O [2-Amino-1,3,5(10)estratriene-3,17β-diol]
Ki [1, 4]: 3.5 µM | inhibition at 22.2 µM [1, 5]: 76%

COc1ccc2c(c1)CC[C@@H]1[C@@H]2CC[C@]2(C)[C@@H](O)CC[C@@H]12 [3-Methoxy-1,3,5(10)estratriene-17β-ol]
Ki [1, 11]: 4.8 µM | inhibition at 22.2 µM [1, 9]: 61%

C[C@]12CC[C@@H]3c4ccc(O)cc4CC[C@H]3[C@@H]1C[C@H](O)[C@@H]2O [1,3,5(10)Estratriene-3,16β,17β-triol]
Ki [1]: 5.5 µM | inhibition at 22.2 µM [1, 10]: 72%

C[C@]12CC[C@H]3[C@@H](CC=C4C[C@@H](O)CC[C@@]43C)[C@@H]1CC[C@@H]2O [5-Androstene-3β,17β-diol]
Ki [1]: 35 µM | inhibition at 22.2 µM [1, 6]: 39%

C[C@]12CC[C@H](O)C[C@H]1CC[C@@H]1[C@@H]2CC[C@]2(C)C(=O)CC[C@@H]12 [3β-Hydroxy-5β-androstane-17-one]
Ki [1]: 302 µM | inhibition at 22.2 µM [1, 6]: 13%

C[C@]12CC[C@@H]3c4ccc(O)cc4CC[C@H]3[C@@H]1C[C@@H](O)C2 [1,3,5(10)Estratriene-3,16α-diol]
Ki [1, 7]: 1.3 µM | inhibition at 22.2 µM [1, 5]: 89%

C[C@]12CC[C@@H]3c4cc([N+](=O)[O-])c(O)c([N+](=O)[O-])c4CC[C@H]3[C@@H]1CC[C@@H]2O [2,4-Dinitro-1,3,5(10)estratriene-3,17β-diol]
Ki [1]: 4.3 µM | inhibition at 22.2 µM [1, 10]: 72%

C[C@]12CC[C@@H]3c4ccc(O)c(N)c4CC[C@H]3[C@@H]1CC[C@@H]2O [4-Amino-1,3,5(10)estratriene-3,17β-diol]
Ki [1, 4]: 3.5 µM | inhibition at 22.2 µM [1, 5]: 76%

C[C@]12CCC(=O)C[C@@H]1CC[C@@H]1[C@@H]2CC[C@]2(C)[C@@H](O)CC[C@@H]12 [17β-Hydroxy-5α-androstane-3-one]
Ki [1]: 38 µM | inhibition at 22.2 µM [1, 6]: 37%
